Experimental data: patent US20240246964A1 (Arbutus Biopharma Corporation, priority 2021, published 2024)

What was measured:
human PD-L1 = human PD-L1 (Homo sapiens (Human), UniProt Q9NZQ7); test: T cell activation luciferase reporter cell culture system (T Cell Activation Assay); assay type: cell-based; settings: luciferase reporter assay; PD-L1 aAPC/CHO-K1 cells with PD-1 effector Jurkat T cells
[1] = molecular target: PD-L1 His protein / PD-1 Fc protein (Homo sapiens (Human), UniProt Q9NZQ7); test: HTRF Assay (PD-1/PD-L1 interaction); assay type: binding; settings: PD-L1 His 6 nM, PD-1 Fc 6 nM
Chain of PD-L1 His protein / PD-1 Fc protein (Q9NZQ7 19-238): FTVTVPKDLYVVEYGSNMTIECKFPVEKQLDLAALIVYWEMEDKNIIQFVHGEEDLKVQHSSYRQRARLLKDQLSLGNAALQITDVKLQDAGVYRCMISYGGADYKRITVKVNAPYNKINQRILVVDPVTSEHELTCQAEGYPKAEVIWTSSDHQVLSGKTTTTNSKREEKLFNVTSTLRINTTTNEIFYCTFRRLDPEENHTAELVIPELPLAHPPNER

Chain of human PD-L1 (Q9NZQ7 19-290): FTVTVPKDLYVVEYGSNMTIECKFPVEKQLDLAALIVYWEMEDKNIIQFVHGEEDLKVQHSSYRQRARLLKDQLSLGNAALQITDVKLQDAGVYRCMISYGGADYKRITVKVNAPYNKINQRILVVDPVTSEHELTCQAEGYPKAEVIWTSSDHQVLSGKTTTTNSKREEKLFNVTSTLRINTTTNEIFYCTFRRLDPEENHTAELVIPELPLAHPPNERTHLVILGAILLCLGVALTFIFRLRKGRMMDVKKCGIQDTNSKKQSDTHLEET

COc1nc(-c2cccc(-c3ccnc(-c4cc5c(=O)n(C)c(CN[C@H]6C[C@](C)(O)C6)nn5c4)c3Cl)c2Cl)cc(Cl)c1CNC[C@@H]1CCC(=O)N1 [Compound 87, 6-(3-chloro-4-(2-chloro-3-(4-chloro-6-methoxy-5-(((((S)-5-oxopyrrolidin-2-yl)methyl)amino)methyl)pyridin-2-yl)phenyl)pyridin-2-yl)-2-((((1r,3r)-3-hydroxy-3-methylcyclobutyl)amino)methyl)-3-methylpyrrolo[2,1-f][1,2,4]triazin-4(3H)-one]
EC50 (human PD-L1): 312 nM
IC50 [1]: 3 nM

COc1nc(-c2cccc(-c3ccnc(-c4cc5c(=O)n(C)c(CNC[C@H](C)O)nn5c4)c3Cl)c2Cl)ccc1CNC[C@@H]1CCC(=O)N1 [Compound 91, 6-(3-chloro-4-(2-chloro-3-(6-methoxy-5-(((((S)-5-oxopyrrolidin-2-yl)methyl)amino)methyl)pyridin-2-yl)phenyl)pyridin-2-yl)-2-((((S)-2-hydroxypropyl)amino)methyl)-3-methylpyrrolo[2,1-f][1,2,4]triazin-4(3H)-one]
EC50 (human PD-L1): 221 nM
IC50 [1]: 4.4 nM

CNCc1cn(C)c2nc(-c3cccc(-c4ccnc(-c5ccc(CNC[C@@H]6CCC(=O)N6)c(OC)c5)c4Cl)c3Cl)ccc12 [Compound 94, (S)-5-(((4-(3-chloro-4-(2-chloro-3-(1-methyl-3-((methylamino)methyl)-1H-pyrrolo[2,3-b]pyridin-6-yl)phenyl)pyridin-2-yl)-2-methoxybenzyl)amino)methyl)pyrrolidin-2-one]
EC50 (human PD-L1): 47.5 nM
IC50 [1]: 0.5 nM

COc1cc(-c2nccc(-c3cccc(-c4ccc5c(CNC6CN(C(C)=O)C6)cn(C)c5n4)c3Cl)c2Cl)ccc1CNC[C@@H]1CCC(=O)N1 [Compound 95, (S)-5-(((4-(4-(3-(3-(((1-acetylazetidin-3-yl)amino)methyl)-1-methyl-1H-pyrrolo[2,3-b]pyridin-6-yl)-2-chlorophenyl)-3-chloropyridin-2-yl)-2-methoxybenzyl)amino)methyl)pyrrolidin-2-one]
EC50 (human PD-L1): 104 nM
IC50 [1]: 0.6 nM

COc1cc(-c2nccc(-c3cccc(-c4ccc5c(CNC6CCC(F)(F)CC6)cn(C)c5n4)c3Cl)c2Cl)ccc1CNC[C@@H]1CCC(=O)N1 [Compound 96, (S)-5-(((4-(3-chloro-4-(2-chloro-3-(3-(((4,4-difluorocyclohexyl)amino)methyl)-1-methyl-1H-pyrrolo[2,3-b]pyridin-6-yl)phenyl)pyridin-2-yl)-2-methoxybenzyl)amino)methyl)pyrrolidin-2-one]
EC50 (human PD-L1): 230 nM
IC50 [1]: 0.6 nM

COc1cc(-c2nccc(-c3cccc(-c4ccc5c(CNCCO)cn(C)c5n4)c3Cl)c2Cl)ccc1CNC[C@@H]1CCC(=O)N1 [Compound 97, (S)-5-(((4-(3-chloro-4-(2-chloro-3-(3-(((2-hydroxyethyl)amino)methyl)-1-methyl-1H-pyrrolo[2,3-b]pyridin-6-yl)phenyl)pyridin-2-yl)-2-methoxybenzyl)amino)methyl)pyrrolidin-2-one]
EC50 (human PD-L1): 28.3 nM
IC50 [1]: 0.5 nM

COc1cc(-c2nccc(-c3cccc(-c4ccc5c(CNC[C@H](C)O)cn(C)c5n4)c3Cl)c2Cl)ccc1CNC[C@@H]1CCC(=O)N1 [Compound 98, (S)-5-(((4-(3-chloro-4-(2-chloro-3-(3-((((S)-2-hydroxypropyl)amino)methyl)-1-methyl-1H-pyrrolo[2,3-b]pyridin-6-yl)phenyl)pyridin-2-yl)-2-methoxybenzyl)amino)methyl)pyrrolidin-2-one]
EC50 (human PD-L1): 30.5 nM
IC50 [1]: 0.7 nM

COc1cc(-c2nccc(-c3cccc(-c4ccc5c(CNCC(C)(C)O)cn(C)c5n4)c3Cl)c2Cl)ccc1CNC[C@@H]1CCC(=O)N1 [Compound 99, (S)-5-(((4-(3-chloro-4-(2-chloro-3-(3-(((2-hydroxy-2-methylpropyl)amino)methyl)-1-methyl-1H-pyrrolo[2,3-b]pyridin-6-yl)phenyl)pyridin-2-yl)-2-methoxybenzyl)amino)methyl)pyrrolidin-2-one]
EC50 (human PD-L1): 47.8 nM
IC50 [1]: 0.7 nM

COCCNCc1cn(C)c2nc(-c3cccc(-c4ccnc(-c5ccc(CNC[C@@H]6CCC(=O)N6)c(OC)c5)c4Cl)c3Cl)ccc12 [Compound 100, (S)-5-(((4-(3-chloro-4-(2-chloro-3-(3-(((2-methoxyethyl)amino)methyl)-1-methyl-1H-pyrrolo[2,3-b]pyridin-6-yl)phenyl)pyridin-2-yl)-2-methoxybenzyl)amino)methyl)pyrrolidin-2-one]
EC50 (human PD-L1): 59 nM
IC50 [1]: 0.9 nM

COc1cc(-c2nccc(-c3cccc(-c4ccc5c(CN(C)CCO)cn(C)c5n4)c3Cl)c2Cl)ccc1CNC[C@@H]1CCC(=O)N1 [Compound 101, (S)-5-(((4-(3-chloro-4-(2-chloro-3-(3-(((2-hydroxyethyl)(methyl)amino)methyl)-1-methyl-1H-pyrrolo[2,3-b]pyridin-6-yl)phenyl)pyridin-2-yl)-2-methoxybenzyl)amino)methyl)pyrrolidin-2-one]
EC50 (human PD-L1): 31 nM
IC50 [1]: 0.5 nM

COc1nc(-c2cccc(-c3ccnc(-c4cc5c(=O)n(C)c(CNC[C@@H]6CCC(=O)N6)nn5c4)c3Cl)c2Cl)ccc1CNC[C@@H]1CCC(=O)N1 [Compound 103, 6-(3-chloro-4-(2-chloro-3-(6-methoxy-5-(((((S)-5-oxopyrrolidin-2-yl)methyl)amino)methyl)pyridin-2-yl)phenyl)pyridin-2-yl)-3-methyl-2-(((((S)-5-oxopyrrolidin-2-yl)methyl)amino)methyl)pyrrolo[2,1-f][1,2,4]triazin-4(3H)-one]
EC50 (human PD-L1): 304 nM
IC50 [1]: 0.7 nM

COc1cc(-c2nccc(-c3cccc(-c4ccc(C5=NCCN5)c(OC)n4)c3Cl)c2Cl)ccc1C1=NCCN1 [Compound 106, 3-chloro-4-(2-chloro-3-(5-(4,5-dihydro-1H-imidazol-2-yl)-6-methoxypyridin-2-yl)phenyl)-2-(4-(4,5-dihydro-1H-imidazol-2-yl)-3-methoxyphenyl)pyridine]
EC50 (human PD-L1): 123 nM
IC50 [1]: 1.4 nM

COc1nc(-c2cccc(-c3ccnc(-c4cc5c(=O)n(C)c(CN6CC(C)(O)C6)nn5c4)c3Cl)c2Cl)ccc1CNC[C@@H]1CCC(=O)N1 [Compound 110, (S)-6-(3-chloro-4-(2-chloro-3-(6-methoxy-5-((((5-oxopyrrolidin-2-yl)methyl)amino)methyl)pyridin-2-yl)phenyl)pyridin-2-yl)-2-((3-hydroxy-3-methylazetidin-1-yl)methyl)-3-methylpyrrolo[2,1-f][1,2,4]triazin-4(3H)-one]
EC50 (human PD-L1): 60.5 nM
IC50 [1]: 0.9 nM

COc1nc(-c2cccc(-c3ccnc(-c4cc5c(=O)n(C)c(CNC(C)C)nn5c4)c3Cl)c2Cl)ccc1CNC[C@@H]1CCC(=O)N1 [Compound 111, (S)-6-(3-chloro-4-(2-chloro-3-(6-methoxy-5-((((5-oxopyrrolidin-2-yl)methyl)amino)methyl)pyridin-2-yl)phenyl)pyridin-2-yl)-2-((isopropylamino)methyl)-3-methylpyrrolo[2,1-f][1,2,4]triazin-4(3H)-one]
EC50 (human PD-L1): 263 nM
IC50 [1]: 2.2 nM

COc1cc(-c2nccc(-c3cccc(-c4ccc(CNC[C@@H]5CCC(=O)N5)c(OC)n4)c3Cl)c2Cl)cc(C)c1CNC[C@H](C)O [Compound 114, (S)-5-((((6-(2-chloro-3-(3-chloro-2-(4-((((S)-2-hydroxypropyl)amino)methyl)-3-methoxy-5-methylphenyl)pyridin-4-yl)phenyl)-2-methoxypyridin-3-yl)methyl)amino)methyl)pyrrolidin-2-one]
EC50 (human PD-L1): 81.2 nM
IC50 [1]: 0.9 nM

COc1cc(-c2nccc(-c3cccc(-c4ccc(CNC[C@@H]5CCC(=O)N5)c(OC)n4)c3Cl)c2Cl)cc(C)c1CNC[C@@H]1CCC(=O)N1 [Compound 115, (S)-5-((((6-(2-chloro-3-(3-chloro-2-(3-methoxy-5-methyl-4-(((((S)-5-oxopyrrolidin-2-yl)methyl)amino)methyl)phenyl)pyridin-4-yl)phenyl)-2-methoxypyridin-3-yl)methyl)amino)methyl)pyrrolidin-2-one]
EC50 (human PD-L1): 36.3 nM
IC50 [1]: 1.1 nM

COc1nc(-c2cccc(-c3ccnc(-c4ccc5c(c4)CNC5)c3Cl)c2Cl)ccc1CNC[C@@H]1CCC(=O)N1 [Compound 116, (S)-5-((((6-(2-chloro-3-(3-chloro-2-(isoindolin-5-yl)pyridin-4-yl)phenyl)-2-methoxypyridin-3-yl)methyl)amino)methyl)pyrrolidin-2-one]
EC50 (human PD-L1): 64.9 nM
IC50 [1]: 0.9 nM

COc1cc(-c2nccc(-c3cccc(-c4ccc(CNC[C@@H]5CCC(=O)N5)c(OC)n4)c3Cl)c2Cl)cc(C)c1CN(C)C[C@@H]1CCC(=O)N1 [Compound 117, (S)-5-((((6-(2-chloro-3-(3-chloro-2-(3-methoxy-5-methyl-4-((methyl(((S)-5-oxopyrrolidin-2-yl)methyl)amino)methyl)phenyl)pyridin-4-yl)phenyl)-2-methoxypyridin-3-yl)methyl)amino)methyl)pyrrolidin-2-one]
EC50 (human PD-L1): 30.7 nM
IC50 [1]: 1.3 nM

COc1cc(-c2nccc(-c3cccc(-c4ccc(CNC[C@@H]5CCC(=O)N5)c(OC)n4)c3Cl)c2Cl)cc(C)c1CN(C)C[C@H](C)O [Compound 118, (S)-5-((((6-(2-chloro-3-(3-chloro-2-(4-((((S)-2-hydroxypropyl)(methyl)amino)methyl)-3-methoxy-5-methylphenyl)pyridin-4-yl)phenyl)-2-methoxypyridin-3-yl)methyl)amino)methyl)pyrrolidin-2-one]
EC50 (human PD-L1): 44.1 nM
IC50 [1]: 1.6 nM

COc1nc(-c2ccnc(-c3cccc4c3CC[C@@H]4Oc3nc(OC)c(CNC[C@H](C)O)cc3C(F)(F)F)c2Cl)ccc1CNC[C@@H]1CCC(=O)N1 [Compound 128, (S)-5-((((3′-chloro-2′-((S)-1-((5-((((S)-2-hydroxypropyl)amino)methyl)-6-methoxy-3-(trifluoromethyl)pyridin-2-yl)oxy)-2,3-dihydro-1H-inden-4-yl)-6-methoxy-[2,4′-bipyridin]-5-yl)methyl)amino)methyl)pyrrolidin-2-one]
EC50 (human PD-L1): 9.11 nM
IC50 [1]: 0.542 nM
